Results from PMC6897945, “CytA, a reductase in the cytorhodin biosynthesis pathway, inactivates anthracycline drugs in Streptomyces” (Communications Biology, 2019).
In brackets after ≈: the same amount, converted by molar mass. Where two headings read alike, the source gives them in different places.

Columns and labels:
[1] = test system: CytA; experiment: Enzyme kinetics of CytA (formation of deglycosylation products, anaerobic); type: biochemical, Streptomyces sp. SCSIO 1666; conditions: substrate of CytA; 0.5 μM CytA, 20 μM NADH, anaerobic
Description: Enzymatic reactions were carried out under anaerobic conditions in an anaerobic workstation (Don Whitley Scientific A45) containing a gas phase of N2/H2/CO2 (80:10: 10%, by vol.). ^1H, ^13C, and 2D (COSY, HMQC, HMBC and NOESY) NMR spectra were recorded at 25 °C with an Avance 700 MHz spectrometer instruments (Bruker). High-resolution mass spectra were obtained with a Maxis quadrupole-time-of-flight mass spectrometer (Bruker).
To validate the in vitro biochemical activities of CytA, we overexpressed and purified this enzyme as a soluble N-terminally His6-tagged protein from E. coli (Fig. 2a). Tris-Cl buffer was made O2 free by boiling, followed by cooling under N2 flow; NADH stock solution (dissolved in Tris-Cl), substrate stock solution (dissolved in DMSO), and enzyme solution (dissolved in Tris-Cl supplemented with 10% glycerin) were subjected to O2 eliminating process in the anaerobic workstations for at least two cycles (40 min for one cycle). CytA enzymatic activity was tested in 50 μL volume containing 50 mM Tris-Cl (pH 8.0), 25 μM substrate, 0.5 μM CytA, and 20 μM NADH, at 37 °C for 30 min. The reaction was quenched with the addition to 2 volumes MeOH. After centrifugation to remove protein, supernatants were analyzed with Agilent HPLC equipment using a Phenomenex Prodigy ODS column S5 (150 × 4.60 mm, 5 μ) and UV detection at 254 and 500 nm. Samples were eluted with a gradient elution of phase A containing 0.1% TFA in ddH2O and phase B containing 100% acetonitrile, at a flow rate of 1 mL/min.
Kinetic analyses of CytA with putative substrates 6–10, daunorubicin, doxorubicin, idarubicin, epirubicin and pirarubicin, involved a reaction volume of 20 μL consisting of 50 mM Tris-Cl (pH 8.0), 0.5 μM CytA, 20 μM NADH, […]
All assays were performed in triplicate and Km and Vmax values were calculated on the basis of curve fitting to the Michaelis-Menten equation: v = Vmax *[S]/(Km + [S]) (Supplementary Fig. 7).
For kinetics of CytA, Origin 9.0 (OriginLab Co.) was used to analyze on the basis of curve fitting to the Michaelis-Menten equation. Experiments were performed in triplicate independently. For antibacterial activity, experiments were performed in triplicate using 96-well plates.

[2] = test system: B. subtilis BS01; experiment: Antibacterial activity, broth dilution MIC; type: cell-based; conditions: Bacillus subtilis
Description: (§1) The antibacterial activities of compounds 1–13 were assessed using twofold serial dilutions of antibacterial agents in MH broth, according to previously reported standard methods provided by Clinical and Laboratory Standards Institute (CLSI)[30]. These compounds were tested for their antibacterial activities against Bacillus subtilis BS01, Staphyloccocus aureus ATCC 29213, Staphyloccocus aureus 745524, Bacillus thuringiensis BT01, and Enterococcus faecalis ATCC 29212 using a broth dilution method.

[3] = test system: B. thuringiensis BT01; experiment: Antibacterial activity, broth dilution MIC; type: cell-based; conditions: Bacillus thuringiensis
Description: as §1

[4] = test system: E. faecalis ATCC 29212; experiment: Antibacterial activity, broth dilution MIC; type: cell-based; conditions: Enterococcus faecalis
Description: as §1

[5] = test system: Staphylococcus aureus 745524; experiment: Antibacterial activity, broth dilution MIC; type: cell-based
Description: as §1

[6] = test system: Staphylococcus aureus ATCC 29213; experiment: Antibacterial activity, broth dilution MIC; type: cell-based
Description: as §1

[7] = Cytotoxic activity, MTT method; type: cell-based; conditions: human
Text: (§2) All data were obtained in triplicate and are presented as means.

[8] = test system: A549 human lung cancer cell line; experiment: Cytotoxic activity, MTT method; type: cell-based; conditions: A549, read-out: Cytotoxic activities IC50, A549
Text: as §2

[9] = test system: HeLa human cervical carcinoma cell line; experiment: Cytotoxic activity, MTT method; type: cell-based; conditions: read-out: Cytotoxic activities IC50, HeLa
Text: as §2

[10] = test system: HepG2 human hepatocellular carcinoma cell line; experiment: Cytotoxic activity, MTT method; type: cell-based; conditions: HepG2, read-out: Cytotoxic activities IC50, HepG2
Text: as §2

[11] = test system: MCF-7 human breast adenocarcinoma cell line; experiment: Cytotoxic activity, MTT method; type: cell-based; conditions: MCF7, read-out: Cytotoxic activities IC50, MCF-7
Text: as §2

[12] = test system: MDA-MB-231 human triple negative breast adenocarcinoma cell line; experiment: Cytotoxic activity, MTT method; type: cell-based; conditions: MDA-MB-231, read-out: Cytotoxic activities IC50, MDA-MB-231
Text: as §2

[13] = test system: MDA-MB-468 human triple negative breast adenocarcinoma cell line; experiment: Cytotoxic activity, MTT method; type: cell-based; conditions: MDA-MB-468, read-out: Cytotoxic activities IC50, MDA-MB-468
Text: as §2

[14] = test system: RKO human colorectal carcinoma cell line; experiment: Cytotoxic activity, MTT method; type: cell-based; conditions: read-out: Cytotoxic activities IC50, RKO
Text: as §2

[15] = test system: five gram-positive bacteria; experiment: Antibacterial activities, set of five gram-positive bacteria; type: cell-based; conditions: set of five gram-positive bacteria (Table 2)
Description: as §1

[16] = test system: Streptomyces sp. SCSIO 1666 WT; experiment: Growth inhibition zone assay; type: cell-based; conditions: WT strain, Fig. 3
Text: (§3) We also noted that the ∆cytA mutant strain accumulated small amounts (80~100-fold lower than WT producer) of the immediate biosynthetic precursors of cosmomycins A (3) and B (4). The in vitro antimicrobial activities of compounds 1–13 against a panel of gram-positive bacteria (Table 2) provided some insight into the possible physiological significance of CytA-catalyzed reductions. Furthermore, we had observed that the ΔcytA mutant strain is clearly impaired relative to the WT strain upon addition of 6 or 7 as potential substrates. To evaluate this effect, we probed the sensitivity of Streptomyces sp. SCSIO 1666 to 6 and 7 in an inhibition zone assay (Fig. 3). A clear inhibition zone (16 mm) using the ΔcytA mutant plate was observed when supplemented with 1 μg of 6 or 7. […] That CytA production endows cosmomycin resistance provides strong evidence that the cytA gene directly confers Streptomyces. sp. SCSIO 1666 with the ability to protect itself from the effects by self-resistance to cosmomycins C and D.
(§4) Fig. 3 Sensitivity of Streptomyces sp. SCSIO 1666 toward cosmomycin C (6) and cosmomycin D (7) (1 μg) as determined by growth inhibition zone assays. […] TEXT PRINTED IN THE PICTURE: 6: ΔcytA mutant strain: 16 mm DOUBTS OF THE COPYIST ABOUT THIS PICTURE: 6, ΔcytA mutant strain: the small yellow print reads 16 mm, but it could be 15 or 18 mm / 6: the yellow double arrow marked 16 mm spans the zone around disc 6. The picture prints no measure name, so it may be the inhibition zone diameter or only a scale mark

[17] = test system: Streptomyces sp. SCSIO 1666 ΔcytA mutant strain; experiment: Growth inhibition zone assay; type: cell-based; conditions: ∆cytA mutant strain, Fig. 3
Text: as §3, §4

[18] = test system: MDA-MB-468 cells; conditions: cited from earlier work
[19] = B. subtilis BS01, triplicate, read-out: MIC values, BS
[20] = ATCC29212, E. faecalis ATCC 29212, triplicate, read-out: MIC values, EF
[21] = Staphylococcus aureus 745524, triplicate, read-out: MIC values, SA2
[22] = ATCC29213, Staphylococcus aureus ATCC 29213, triplicate, read-out: MIC values, SA1
[23] = Huvec-12 normal cell line, read-out: Cytotoxic activities IC50, Huvec-12
[24] = L02 normal cell line, read-out: Cytotoxic activities IC50, L02
[25] = B. thuringiensis BT01, triplicate, read-out: MIC values, BT

Row | Structure (SMILES) | Km [1] [µM] | kcat [1] [s⁻¹] | MIC [2, 19] [µg/mL] | MIC ([3]; BT01, read-out: MIC values, BT) [µg/mL] | MIC [4, 20] [µg/mL] | MIC [5, 21] [µg/mL] | MIC [6, 22] [µg/mL] | IC50 [7, 23] [µM] | IC50 [7, 24] [µM] | IC50 [8] [µM] | IC50 [9] [µM] | IC50 [10] [µM] | IC50 [11] [µM] | IC50 [12] [µM] | IC50 [13] [µM] | IC50 [14] [µM] | MIC [15] [µg/mL] | MIC [3, 25] [µg/mL] | also measured
1 | CC[C@@]1(O)C[C@H](O)c2c(O)c3c(c(O)c2[C@H]1C(=O)OC)C(=O)c1cccc(O)c1C3=O [Compound 10, ε-rhodomycinone] | 31.2 | 0.00233 | > 32 | > 32 | > 32 | > 32 | > 32 | 15.3 | 11.8 | 33.2 | 20.2 | 17.2 | 37.3 | > 50 | 7.43 | 18.5 | > 32 |  | activity in growth inhibition zone assay [16]: inactive; activity in growth inhibition zone assay [17]: inactive
2 | CC[C@@]1(O)CCc2c(O)c3c(c(O)c2[C@H]1O[C@H]1C[C@H](N(C)C)[C@H](O[C@H]2C[C@H](O)[C@H](O[C@H]4CC[C@H](O)[C@H](C)O4)[C@H](C)O2)[C@H](C)O1)C(=O)c1cccc(O)c1C3=O [Compound 4, cosmomycin B] |  |  | 0.25 (≈ 0.324 µM) |  | 0.03 (≈ 0.0389 µM) | 0.125 (≈ 0.162 µM) | 0.25 (≈ 0.324 µM) | 0.41 | 0.32 | 0.021 | 0.017 | 0.038 | 0.65 | 0.85 | 0.71 | 0.089 |  | 0.25 (≈ 0.324 µM) | cytotoxic activity against MDA-MB-468 cells [18]: devoid of activity
3 | CC[C@@]1(O)CCc2c(O)c3c(c(O)c2[C@H]1C(=O)OC)C(=O)c1cccc(O)c1C3=O [Compound 11] |  |  | > 32 |  | > 32 | > 32 | > 32 |  |  |  |  |  |  |  |  |  | > 32 | > 32 | 
4 | CC[C@@]1(O)C[C@H](O[C@H]2C[C@H](N(C)C)[C@H](O)[C@H](C)O2)c2c(O)c3c(c(O)c2[C@H]1C(=O)OC)C(=O)c1cccc(O)c1C3=O [Compound 9, ε-rhodomycin] | 8.5 | 0.0055 |  | 4 (≈ 6.83 µM) |  |  |  | 7.21 | 14 | 1.92 | 1.01 | 1.91 | 11.7 | 6.63 | 13.5 | 2.88 |  |  | MIC ([2]; BS01, read-out: MIC values, BS): 8 µg/mL (≈ 13.7 µM); MIC ([4]; ATCC29212, read-out: MIC values, EF): 8 µg/mL (≈ 13.7 µM); MIC ([5]; Staphylococcus aureus, 745524, read-out: MIC values, SA2): 4 µg/mL (≈ 6.83 µM); MIC ([6]; Staphylococcus aureus, ATCC29213, read-out: MIC values, SA1): 4 µg/mL (≈ 6.83 µM)
